Measured values from ChEMBL document CHEMBL1201862, “PubChem BioAssay data set” (2004).
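Step 1: Grow cells in 96-well plates. Step 2: Expose to compound for 48 hours at 5 concentrations. Step 3: Interpolate endpoints linearly; if unreached, use highest concentration. GI50 marks 50% less growth.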 Active and inactive are the calls of the source. Rule as the data show it: active = GI50 up to about 1.1 µM and inactive = higher. Residues, ends and D or L forms follow the SMILES beside them. *: point of attachment. Boc = CC(C)(C)OC(=O)*

Columns and labels:
Test in all cases: inhibition of tumour cell growth, NCI panel, 48 h
SF-295 = test system: SF-295
TK-10 = test system: TK-10
NCI-H460 = test system: NCI-H460
OVCAR-8 = test system: OVCAR-8
HOP-92 = test system: HOP-92
786-0 = test system: 786-0
SK-MEL-2 = test system: SK-MEL-2
COLO 205 = test system: COLO 205
RXF 393 = test system: RXF 393
NCI-H23 = test system: NCI-H23
CCRF-CEM = test system: CCRF-CEM
SK-MEL-28 = test system: SK-MEL-28
HCT-15 = test system: HCT-15
PC-3 = test system: PC-3
MDA-MB-435 = test system: MDA-MB-435
MDA-MB-231 = test system: MDA-MB-231
MDA-N = test system: MDA-N
BT-549 = test system: BT-549

Row | Compound | GI50 (SF-295) | GI50 (TK-10) | GI50 (NCI-H460) | GI50 (OVCAR-8) | GI50 (HOP-92) | GI50 (786-0) | GI50 (SK-MEL-2) | GI50 (COLO 205) | GI50 (RXF 393) | GI50 (NCI-H23) | GI50 (CCRF-CEM) | GI50 (SK-MEL-28) | GI50 (HCT-15) | GI50 (PC-3) | GI50 (MDA-MB-435) | GI50 (MDA-MB-231) | GI50 (MDA-N) | GI50 (BT-549)
1 | CN(C)CCNC(=O)c1cccc2c1nc(-c1cccnc1)c1ccccc12 | 4.72 µM (inactive) | 2.25 µM (inactive) | 0.303 µM (active) | 4.81 µM (inactive) | 5.31 µM (inactive) | 5.04 µM (inactive) | 10.6 µM (inactive) | 4.47 µM (inactive) | 4.71 µM (inactive) | 4.24 µM (inactive) | 4.29 µM (inactive) | 11.1 µM (inactive) | 3.74 µM | – | – | – | – | –
2 | O=C(O)CCCCCCC[C@H]1S[C@H]1CCCCCCO | > 100 µM (inactive) | > 100 µM (inactive) | – | > 100 µM (inactive) | < 0.01 µM (active) | > 100 µM (inactive) | > 100 µM (inactive) | > 100 µM (inactive) | > 100 µM (inactive) | > 100 µM (inactive) | – | > 100 µM (inactive) | > 100 µM | – | – | – | – | –
3 | CC(=O)c1cc2sc3ccccc3c2[nH]1 | > 100 µM (inactive) | > 100 µM (inactive) | > 100 µM (inactive) | 61.2 µM (inactive) | > 100 µM (inactive) | > 100 µM (inactive) | > 100 µM (inactive) | > 100 µM (inactive) | > 100 µM (inactive) | > 100 µM (inactive) | – | > 100 µM (inactive) | > 100 µM | > 100 µM (inactive) | > 100 µM (inactive) | > 100 µM (inactive) | > 100 µM (inactive) | –
4 | Cn1c2ccccc2c2ccc3c(c21)C(=O)C(c1ccccc1)=CC3=O | 61.4 µM (inactive) | 43.8 µM (inactive) | 9.27 µM (inactive) | 14.9 µM (inactive) | 15.7 µM (inactive) | 17.1 µM (inactive) | 22 µM (inactive) | 31.1 µM (inactive) | – | 22.4 µM (inactive) | 9.62 µM (inactive) | 24 µM (inactive) | 7.03 µM | – | – | – | – | –
5 | CC(C)=CC(O)C(C(O)CCC1(C)OCCO1)S(=O)(=O)c1ccccc1 (centres undefined) | > 100 µM (inactive) | > 100 µM (inactive) | > 100 µM (inactive) | > 100 µM (inactive) | – | > 100 µM (inactive) | > 100 µM (inactive) | > 100 µM (inactive) | > 100 µM (inactive) | > 100 µM (inactive) | > 100 µM (inactive) | > 100 µM (inactive) | > 100 µM | > 100 µM (inactive) | > 100 µM (inactive) | > 100 µM (inactive) | > 100 µM (inactive) | > 100 µM (inactive)
6 | COc1ccc(/C=C2/SC(c3ccccc3)N(NC(=O)CCCCCCCCC(=O)NN3C(=O)/C(=C\c4ccc(OC)c(OC)c4)SC3c3ccccc3)C2=O)cc1OC (centres undefined) | 24.2 µM (inactive) | > 100 µM (inactive) | 71 µM (inactive) | 67.8 µM (inactive) | 17.3 µM (inactive) | 19.6 µM (inactive) | 52.7 µM (inactive) | > 100 µM (inactive) | 58.5 µM (inactive) | 38.4 µM (inactive) | – | 48 µM (inactive) | 55.2 µM | 76 µM (inactive) | 38.5 µM (inactive) | 74.6 µM (inactive) | 35.2 µM (inactive) | > 100 µM (inactive)
7 | CC(C)(C)OC(=O)NC(Cc1ccccc1)C(=O)N[C@H]1c2ccsc2/C(=N/O)[C@H]1O (some centres undefined) | > 100 µM (inactive) | > 100 µM (inactive) | > 100 µM (inactive) | > 100 µM (inactive) | > 100 µM (inactive) | – | > 100 µM (inactive) | > 100 µM (inactive) | > 100 µM (inactive) | > 100 µM (inactive) | > 100 µM (inactive) | – | > 100 µM | > 100 µM (inactive) | > 100 µM (inactive) | > 100 µM (inactive) | > 100 µM (inactive) | > 100 µM (inactive)
8 | N#C/C(=C/c1ccco1)C(=O)c1ccccc1 | > 100 µM (inactive) | > 100 µM (inactive) | > 100 µM (inactive) | > 100 µM (inactive) | > 100 µM (inactive) | > 100 µM (inactive) | > 100 µM (inactive) | > 100 µM (inactive) | – | > 100 µM (inactive) | > 100 µM (inactive) | > 100 µM (inactive) | > 100 µM | – | – | – | – | –
9 | N#CC(=S)Nc1ccc(F)cc1 | 51.6 µM (inactive) | 39.1 µM (inactive) | 55.3 µM (inactive) | 96.2 µM (inactive) | 19.4 µM (inactive) | 53.8 µM (inactive) | > 100 µM (inactive) | 22.4 µM (inactive) | 42.1 µM (inactive) | 53.7 µM (inactive) | 22.4 µM (inactive) | 45.5 µM (inactive) | 88.7 µM | 57.7 µM (inactive) | 38 µM (inactive) | > 100 µM (inactive) | 52.1 µM (inactive) | 32.6 µM (inactive)
10 | Cc1c(N2C(=O)/C(=C/c3ccc(Cl)cc3)N=C2c2ccccc2)c(=O)n(-c2ccccc2)n1C | 35.7 µM (inactive) | 20.5 µM (inactive) | 31 µM (inactive) | 43.7 µM (inactive) | 18.7 µM (inactive) | 46.8 µM (inactive) | 16.7 µM (inactive) | 16 µM (inactive) | 22.3 µM (inactive) | 26.2 µM (inactive) | 28.3 µM (inactive) | – | 3.2 µM | 33.9 µM (inactive) | 19.5 µM (inactive) | 33.8 µM (inactive) | 24.8 µM (inactive) | 47.4 µM (inactive)
11 | COc1ccc(Br)c(CN2CCc3ccccc32)c1OS(=O)(=O)c1ccc(C)cc1 | 19.5 µM (inactive) | 8.02 µM (inactive) | – | 47.5 µM (inactive) | 18 µM (inactive) | 23.7 µM (inactive) | 21.8 µM (inactive) | 11.9 µM (inactive) | 8.67 µM (inactive) | 23.9 µM (inactive) | 21.4 µM (inactive) | 46 µM (inactive) | 25.1 µM | – | – | – | – | –
12 | COc1ccc(-c2nc(-c3cnccn3)n(Cc3ccccc3)n2)cc1 | > 100 µM (inactive) | – | > 100 µM (inactive) | > 100 µM (inactive) | > 100 µM (inactive) | > 100 µM (inactive) | – | > 100 µM (inactive) | > 100 µM (inactive) | > 100 µM (inactive) | > 100 µM (inactive) | > 100 µM (inactive) | > 100 µM | > 100 µM (inactive) | > 100 µM (inactive) | > 100 µM (inactive) | > 100 µM (inactive) | > 100 µM (inactive)
13 | COC(C(O)c1ccc2c(c1)OCO2)P(=O)(c1ccccc1)c1ccccc1 (centres undefined) | > 10 µM (inactive) | > 100 µM (inactive) | > 100 µM (inactive) | 62.1 µM (inactive) | 68.2 µM (inactive) | > 100 µM (inactive) | > 100 µM (inactive) | – | 81.7 µM (inactive) | 30.8 µM (inactive) | > 100 µM (inactive) | > 100 µM (inactive) | – | – | – | – | – | –
14 | CC(NC(=O)C(NC(=O)OC(C)(C)C)C(C)C)C(=O)N1CCCC1C(=O)NCC(=O)NC(C(=O)NCC(=O)O)C(C)C (centres undefined) (Boc-VAPGVG-OH; configuration not given here) | > 100 µM (inactive) | > 100 µM (inactive) | 65.5 µM (inactive) | > 100 µM (inactive) | 29.2 µM (inactive) | > 100 µM (inactive) | > 100 µM (inactive) | > 100 µM (inactive) | – | > 100 µM (inactive) | > 100 µM (inactive) | > 100 µM (inactive) | > 100 µM | > 100 µM (inactive) | > 100 µM (inactive) | 92.3 µM (inactive) | > 100 µM (inactive) | –
